The nature of this assay: MIC of test compounds against various organisms. In kind it is cell-based. The conditions noted are these: against one or more of the above range of gram positive and gram negative bacteria. The procedure:
The MIC (μg/ml) of test compounds against various organisms was determined:
S. aureus Oxford, S. aureus WCUH29, S. pneumoniae 1629, S. pneumoniae N1387, S. pneumoniae ERY 2, E. faecalis 1, E. faecalis 7, H. influenzae Q1, H. influenzae NEMC1, M. catarrhalis 1502, E. coil 7623, E.coli 120.

Data on 25 compounds can be found in patent publication US20040053928A1, “Quinoline derivatives as antibacterials” (priority 2000, published 2004).

A word on the MIC: it is the least concentration at which growth counts as inhibited.

SMILES strings stand for the structures. Where a name gives a salt, the structure may show the parent alone.

Consider `CCOC(=O)C1CN(C(=O)Nc2ccnc3ccc(OC)cc23)CCC1NCC(=O)Nc1ccccc1` (racemic) [Example 5, cis-3-(R/S)-Ethoxycarbonyl-4-(S/R)-(phenylcarbamoylmethyl-amino)-piperidine-1-carboxylic acid (6methoxy-quinolin-4-yl)-amide oxalate], for which the MIC was no more than 32 µg/mL.
As for `CCOC(=O)C1CN(C[C@H](O)c2ccnc3ccc(OC)cc23)CCC1NCC(=O)Nc1ccccc1` (mixture of isomers) [Example 2, cis-2-{1-[2-(R)-Hydroxy-2-(6-methoxy-quinolin-4-yl)-ethyl]-3-(R/S)-ethoxycarbonyl-piperidin-4-(S/R)-ylamino}-N-phenyl-acetamide dioxalate], the MIC is no more than 0.25 µg/mL.
Next, `COc1ccc2nccc(CCN3CCC(NCC(=O)Nc4ccc(F)cc4)CC3)c2c1` [Example 42, N-(4-Fluoro-phenyl)-2-{1-[2-(6-methoxy-quinolin-4-yl)-ethyl]-piperidin-4-ylamino}-acetamide dioxalate]: no more than 2 µg/mL; `COc1ccc2nccc([C@@H](O)CN3CCC(NCC(=O)Nc4ccccc4[N+](=O)[O-])CC3)c2c1` [Example 20, 2-{1-[(R)-2-Hydroxy-2-(6-methoxy-quinolin-4-yl-ethyl]-piperidin-4-ylamino}-N-(2nitro-phenyl)-acetamide dioxalate]: no more than 0.25 µg/mL; `COc1ccc2nccc([C@@H](O)CN3CCC(NCC(=O)Nc4ccccc4)C(CO)C3)c2c1` (mixture of isomers) [Example 3, cis-2-{1-[2-(R)-Hydrxy-2-(6-methoxy-quinolin-4-yl)-ethyl]-3-(R/S)-hydroxymethyl-piperidin-4-(S/R)-ylamino}-N-phenyl-acetamide dioxalate]: no more than 2 µg/mL.
`COc1ccc2nccc([C@@H](O)CN3CCC(NC(=O)/C=C/c4ccco4)CC3)c2c1` [Example 72, (E)-3-Furan-2-yl-N-{1-[(R)-2-hydroxy-2-(6-methoxyquinolin-4-yl)-ethyl]-piperidin-4-yl}-acrylamide oxalate]: the MIC was no more than 2 µg/mL.
Next, `COc1ccc2nccc([C@@H](O)CN3CCC(NCC(=O)Nc4ccccc4)C(C(N)=O)C3)c2c1` (mixture of isomers) [Example 4, cis-2-{1-[2-(R)-Hydroxy-2-(6-methoxy-quinolin-4-yl)-ethyl]-3-(R/S)-aminocarbonyl-piperidin-4-(S/R)-ylamino}-N-phenyl-acetamide dioxalate]: no more than 2 µg/mL.
As for `COc1ccc2nccc([C@@H](O)CN3CCC(CO)(NCC(=O)Nc4ccccc4)CC3)c2c1` [Example 38, 2-{1-[2-(R)-Hydroxy-2-(6-methoxy-quinolin-4-yl)-ethyl]-4-hydroxymethyl-piperidin-4-ylamino}-N-phenyl-acetamide dioxalate], the figure is no more than 2 µg/mL; as for `COc1ccc2nccc(NC(=O)N3CCC(NCC(=O)Nc4ccccc4)C(CO)C3)c2c1` (racemic) [Example 6, cis-3-(R/S)-Hydroxymethyl-4-(S/R)-(phenylcarbamoylmethyl-amino)-piperidine-1-carboxylic acid (6-methoxy-quinolin-4-yl)-amide oxalate], no more than 32 µg/mL.
In the case of `COc1ccc2nccc([C@@H](O)CN3CCC(NCC(=O)Nc4ccc(F)c([N+](=O)[O-])c4)CC3)c2c1` [Example 36, N-[4-Fluoro-3-nitro-phenyl]-2-{1-[(R)-2-hydroxy-2-(6-methoxyquinolin-4-ethyl]-piperidin-4-ylamino)-acetamide dioxalate], the MIC was no more than 32 µg/mL.
As for `COc1ccc2nccc([C@@H](O)CN3CCC(NCC(=O)Nc4ccccc4)CC3)c2c1` [Example 1, 2-{1-[(R)-2-Hydroxy-2-(6-methoxy-quinoin-4-yl)-ethyl]-piperidin-4-ylamino}-N-phenyl-acetamide dioxalate], the figure is no more than 0.25 µg/mL; as for `COc1ccc2nccc([C@@H](O)CN3CCC(NCC(=O)Nc4ccccn4)CC3)c2c1` [Example 13, 2-{1-[(R)-2-Hydroxy-2-(6-methoxy-quinolin-4-yl)-ethyl]-piperidin-4-ylamino}-N-pyridin-2-yl-acetamide dioxalate], no more than 0.25 µg/mL; as for `COc1ccc2nccc([C@@H](O)CN3CCC(N(C)CC(=O)Nc4ccccc4)CC3)c2c1.O=C(O)C(=O)O.O=C(O)C(=O)O` [Example 12, 2-{1-[(R)-2-Hydroxy-2-(6-methoxy-quinolin-4-yl)-ethyl]-piperidin-4-yl-N-methylamino}-N-phenyl-acetamide dioxalate], no more than 32 µg/mL.
As for `COC(=O)C1(NCC(=O)Nc2ccccc2)CCN(C[C@H](O)c2ccnc3ccc(OC)cc23)CC1.O=C(O)C(=O)O.O=C(O)C(=O)O` [Example 37, 2-{1-[2-(R)-Hydroxy-2-(6-methoxy-quinolin-4-yl)-ethyl]-4-methoxycarbonyl-piperidin-4-ylamino)-N-phenyl-acetamide dioxalate], the MIC is no more than 32 µg/mL.
As for `COc1ccc2nccc([C@@H](O)CN3CCC(NCC(=O)Nc4ccc(F)c(F)c4)CC3)c2c1` [Example 17, N-(3,4-Difluoro-phenyl)-2-{1-[(R)-2-hydroxy-2-(6-methoxy-quinolin-4-yl-ethyl]-piperidin-4-ylamino)-acetamide dioxalate], the figure is no more than 0.25 µg/mL.
On to `COc1ccc2nccc([C@@H](O)CN3CCC(NC/C=C/c4ccccc4[N+](=O)[O-])CC3)c2c1` [Example 54, 4-[trans-1-(2-Nitrophenyl)-3-propeny]amino-1-[2-(R)-hydroxy-2-(6-methoxyquinolin-4-yl)]ethylpiperidine dioxalate], for which the MIC is no more than 0.25 µg/mL.
Take `COc1ccc2nccc([C@@H](O)CN3CCC(NC/C=C/c4nccs4)CC3)c2n1` [Example 73, 4-[trans-1-(2-Thiazolyl)-3-propenyl]amino-1-[2-(R)-hydroxy-2-(6-methoxy-[1,5]-naphthyridin-4-yl)]ethylpiperidine dimethanesulphonate]: the MIC is no more than 0.25 µg/mL.
As for `COc1ccc2nccc([C@@H](O)CN3CCC(NCCCn4cc(F)c(=O)[nH]c4=O)CC3)c2c1` [Example 75, 5-Fluoro-1-(3-{1-[(R)-2-hydroxy-2-(6-methoxy-quinolin-4-yl)-ethyl]piperidin-4-ylamino}-propyl)-1H-pyrimidine-2,4-dione dioxolate], the figure is no more than 32 µg/mL.
Turning to `COc1ccc2nccc([C@@H](O)CN3CCC(NCC(=O)Nc4cc(F)cc(F)c4)CC3)c2c1` [Example 29, N-(3,5-Difluoro-phenyl)-2-{1-[(R)-2-hydroxy-2-(6-methoxy-quinolin-4-yl)-ethyl]-piperidin-4-ylamino)-acetamide dioxalate], the minimum inhibitory concentration (MIC) is no more than 0.25 µg/mL.
Consider `COc1ccc2nccc(NC(=O)N3CCC(NCCCc4ccco4)C(CO)C3)c2c1` (racemic) [Example 53, cis-4-(S/R)-[3-(2-Furyl)-propyl]amino-3-(R/S)-hydroxymethyl-[6-methoxyquinolin-4-yl)]aminocarbonylpiperidine oxalate], for which the MIC was no more than 2 µg/mL.
As to `COc1ccc2nccc([C@@H](O)CN3CCC(NCC(=O)Nc4ccc(F)cc4)CC3)c2c1` [Example 41, N-(4-Fluoro-phenyl)-2-{1-[(R)-2-hydroxy-2-(6-methoxy-quinlin-4-yl)-ethyl]-piperidin-4-ylamino}-acetamide dioxalate], the MIC is no more than 2 µg/mL.
Turning to `COc1ccc2nccc([C@@H](O)CN3CCC(NCC(=O)Nc4cccc(C#N)c4)CC3)c2c1` [Example 34, N-[3-Cyano-phenyl]-2-{1-[(R)-2-hydroxy-2-(6-methoxy-quinolin-4-yl)-ethyl]-piperidin-4-ylamino)-acetamide dioxalate], the MIC is no more than 32 µg/mL.
On to `COc1cc(F)c2nccc([C@@H](O)CN3CCC(NCCOc4ccccn4)CC3)c2c1` [Example 74, 4-[2-(Pyridin-2-yloxy)-ethylamino]-1-[2-(R)-hydroxy-2-(8-fluoro-6-methoxyquinolin-4-yl)]ethylpiperidine dioxalate], for which the MIC was no more than 0.25 µg/mL.
For `COc1ccc2nccc([C@@H](O)CN3CCC(NCC(=O)Nc4ccc(Cl)c(Cl)c4)CC3)c2c1` [Example 18, N-(3,4-Dichloro-phenyl)-2-{1-[(R)-2-hydroxy-2-(6-methoxy-quinolin-4-yl-ethyl]-piperidin-4-ylamino)-acetamide dioxalate], the MIC is no more than 2 µg/mL.
In the case of `COc1ccc2nccc([C@@H](O)CN3CCC(NCC(=O)Nc4ccccc4C#N)CC3)c2c1` [Example 19, N-(2Cyano-phenyl)-2-{1-[(R)-2-hydroxy-2-(6-methoxy-quinolin-4-yl-ethyl]-piperidin-4-ylamino)-acetamide dioxalate], the MIC is no more than 0.25 µg/mL.
